Results as given in ChEMBL document CHEMBL1275596, “Prevalence of fosfomycin resistance among CTX-M-producing Escherichia coli clinical isolates in Japan and identification of novel plasmid-mediated fosfomycin-modifying enzymes” (2010).
Converted amounts (≈) assume the structure as drawn.

Columns and labels:
Format in all cases: functional
Escherichia coli [1] = experiment: Antimicrobial activity against Escherichia coli DH10B transformant containing Sac2 fragment with fosC2 gene from pHPA
Escherichia coli [2] = experiment: Antimicrobial activity against beta-lactamase CTX-M-producing Escherichia coli isolate 08-642
Escherichia coli [3] = experiment: Antimicrobial activity against rifampin-, nalidixic acid resistant Escherichia coli CSH-2
Escherichia coli [4] = experiment: Antimicrobial activity against beta-lactamase CTX-M-producing Escherichia coli isolate 03-286 harboring glpT gene with 405[5-bp duplication]411
Escherichia coli [5] = experiment: Antimicrobial activity against beta-lactamase CTX-M-producing Escherichia coli isolate 03-285
Escherichia coli [6] = experiment: Antimicrobial activity against streptomycin-, chloramphenicol-resistant pBCKS positive Escherichia coli DH10B transformant
Escherichia coli [7] = experiment: Antimicrobial activity against beta-lactamase CTX-M-producing Escherichia coli isolate C316
Escherichia coli [8] = experiment: Antimicrobial activity against Escherichia coli CSH-2 conjugant of strain C316
Escherichia coli [9] = experiment: Antimicrobial activity against Escherichia coli DH10B transformant containing Sac2 fragment with fosA3 gene from 08-607
Escherichia coli [10] = experiment: Antimicrobial activity against beta-lactamase CTX-M-producing Escherichia coli isolate 06-607
Escherichia coli [11] = experiment: Antimicrobial activity against beta-lactamase CTX-M-producing Escherichia coli isolate 05-244 harboring glpT gene with 328[14-bp duplication]343, uhpT gene with 1173[96-bp deletion]1270
Escherichia coli [12] = experiment: Antimicrobial activity against beta-lactamase CTX-M-producing Escherichia coli isolate 08-555 harboring glpT gene with 981[227-bp deletion]1209
Escherichia coli [13] = experiment: Antimicrobial activity against Escherichia coli CSH-2 conjugant of strain 08-607
Escherichia coli [14] = experiment: Antimicrobial activity against beta-lactamase CTX-M-producing Escherichia coli isolate 03-271
Escherichia coli [15] = experiment: Antimicrobial activity against beta-lactamase CTX-M-producing Escherichia coli isolate 05-690 harboring uhpA stop at amino acid at 144
Escherichia coli [16] = experiment: Antimicrobial activity against Escherichia coli DH10B transformant containing Kpn1 fragment with fosA3 gene from 08-642
Escherichia coli [17] = experiment: Antimicrobial activity against Escherichia coli CSH-2 conjugant of strain 08-642
Escherichia coli [18] = experiment: Antimicrobial activity against beta-lactamase CTX-M-producing Escherichia coli isolate 03-287 harboring glpT gene with 405[5-bp duplication]411
Escherichia coli [19] = experiment: Antimicrobial activity against beta-lactamase CTX-M-producing Escherichia coli isolate 08-555 harboring glpT gene with 981[227-bp deletion]1209 by agar dilution method
Escherichia coli [20] = experiment: Antimicrobial activity against streptomycin-, chloramphenicol-resistant pBCKS positive Escherichia coli DH10B transformant by agar dilution method
Escherichia coli [21] = experiment: Antimicrobial activity against beta-lactamase CTX-M-producing Escherichia coli isolate 03-286 harboring glpT gene with 405[5-bp duplication]411 by agar dilution method
Escherichia coli [22] = experiment: Antimicrobial activity against beta-lactamase CTX-M-producing Escherichia coli isolate 08-642 by agar dilution method
Escherichia coli [23] = experiment: Antimicrobial activity against beta-lactamase CTX-M-producing Escherichia coli isolate 03-287 harboring glpT gene with 405[5-bp duplication]411 by agar dilution method
Escherichia coli [24] = experiment: Antimicrobial activity against Escherichia coli DH10B transformant containing Sac2 fragment with fosC2 gene from pHPA by agar dilution method
Escherichia coli [25] = experiment: Antimicrobial activity against Escherichia coli CSH-2 conjugant of strain 08-642 by agar dilution method
Escherichia coli [26] = experiment: Antimicrobial activity against beta-lactamase CTX-M-producing Escherichia coli isolate 05-690 harboring uhpA stop codon at amino acid at 144 by agar dilution method
Escherichia coli [27] = experiment: Antimicrobial activity against beta-lactamase CTX-M-producing Escherichia coli isolate C316 by agar dilution method
Escherichia coli [28] = experiment: Antimicrobial activity against Escherichia coli CSH-2 conjugant of strain C316 by agar dilution method
Escherichia coli [29] = experiment: Antimicrobial activity against beta-lactamase CTX-M-producing Escherichia coli isolate 05-244 harboring glpT gene with 328[14-bp duplication]343, uhpT gene with 1173[96-bp deletion]1270 by agar dilution method
Escherichia coli [30] = experiment: Antimicrobial activity against Escherichia coli DH10B transformant containing Kpn1 fragment with fosA3 gene from 08-642 by agar dilution method
Escherichia coli [31] = experiment: Antimicrobial activity against beta-lactamase CTX-M-producing Escherichia coli isolate 06-607 by agar dilution method
Escherichia coli [32] = experiment: Antimicrobial activity against beta-lactamase CTX-M-producing Escherichia coli isolate 03-285 by agar dilution method
Escherichia coli [33] = experiment: Antimicrobial activity against beta-lactamase CTX-M-producing Escherichia coli isolate 03-271 by agar dilution method
Escherichia coli [34] = experiment: Antimicrobial activity against rifampin-, nalidixic acid resistant Escherichia coli CSH-2 by agar dilution method
Escherichia coli [35] = experiment: Antimicrobial activity against Escherichia coli CSH-2 conjugant of strain 08-607 by agar dilution method
Escherichia coli [36] = experiment: Antimicrobial activity against Escherichia coli DH10B transformant containing Sac2 fragment with fosA3 gene from 08-607 by agar dilution method

Compound: CO/N=C(\C(=O)N[C@@H]1C(=O)N2C(C(=O)O)=C(COC(C)=O)CS[C@H]12)c1csc(N)n1 [CEFOTAXIME]
- MIC (Escherichia coli [1]): ≤ 0.06 µg/mL
- MIC (Escherichia coli [2]): 64 µg/mL (≈ 141 µM)
- MIC (Escherichia coli [3]): ≤ 0.06 µg/mL
- MIC (Escherichia coli [4]): > 128 µg/mL
- MIC (Escherichia coli [5]): > 128 µg/mL
- MIC (Escherichia coli [6]): ≤ 0.06 µg/mL
- MIC (Escherichia coli [7]): 128 µg/mL (≈ 281 µM)
- MIC (Escherichia coli [8]): 64 µg/mL (≈ 141 µM)
- MIC (Escherichia coli [9]): ≤ 0.06 µg/mL
- MIC (Escherichia coli [10]): 16 µg/mL (≈ 35.1 µM)
- MIC (Escherichia coli [11]): > 128 µg/mL
- MIC (Escherichia coli [12]): > 128 µg/mL
- MIC (Escherichia coli [13]): 32 µg/mL (≈ 70.3 µM)
- MIC (Escherichia coli [14]): 32 µg/mL (≈ 70.3 µM)
- MIC (Escherichia coli [15]): 64 µg/mL (≈ 141 µM)
- MIC (Escherichia coli [16]): ≤ 0.06 µg/mL
- MIC (Escherichia coli [17]): 128 µg/mL (≈ 281 µM)
- MIC (Escherichia coli [18]): 128 µg/mL (≈ 281 µM)

Compound: C[C@@H]1O[C@@H]1P(=O)(O)O [FOSFOMYCIN]
- MIC (Escherichia coli [19]): > 256 µg/mL
- MIC (Escherichia coli [20]): 0.5 µg/mL (≈ 3.62 µM)
- MIC (Escherichia coli [21]): 64 µg/mL (≈ 464 µM)
- MIC (Escherichia coli [22]): > 256 µg/mL
- MIC (Escherichia coli [23]): > 256 µg/mL
- MIC (Escherichia coli [24]): > 256 µg/mL
- MIC (Escherichia coli [25]): > 256 µg/mL
- MIC (Escherichia coli [26]): 64 µg/mL (≈ 464 µM)
- MIC (Escherichia coli [27]): 256 µg/mL (≈ 1850 µM)
- MIC (Escherichia coli [28]): > 256 µg/mL
- MIC (Escherichia coli [29]): 128 µg/mL (≈ 927 µM)
- MIC (Escherichia coli [30]): > 256 µg/mL
- MIC (Escherichia coli [31]): > 256 µg/mL
- MIC (Escherichia coli [32]): 128 µg/mL (≈ 927 µM)
- MIC (Escherichia coli [33]): 64 µg/mL (≈ 464 µM)
- MIC (Escherichia coli [34]): 1 µg/mL (≈ 7.24 µM)
- MIC (Escherichia coli [35]): > 256 µg/mL
- MIC (Escherichia coli [36]): > 256 µg/mL
